Measurements as given in patent US20070197525A1, “Novel tetracyclic tetrahydrofuran derivatives” (priority 2004, published 2007).

Assays:
[1] = molecular target: T1, human cloned 5-HT2A receptor (Homo sapiens, UniProt P28223); assay: In vitro binding affinity for 5-HT2A receptor (radioligand binding); conditions: human cloned 5-HT2A receptor expressed in L929 cells, [125I]R91150 radioligand; read-out: 5-HT2A (pIC50) (converted)
T1 construct: expressed in transfected cells; host or cells: L929 cells
Method: (§1) The interaction of the compounds of Formula (I) with 5-HT2A and 5-HT2C receptors was assessed in in vitro radioligand binding experiments. In general, a low concentration of a radioligand with a high binding affinity for the receptor is incubated with a sample of a tissue preparation enriched in a particular receptor (1 to 5 mg tissue) in a buffered medium (0.2 to 5 ml). During the incubation, the radioligands bind to the receptor. When equilibrium of binding is reached, the receptor bound radioactivity is separated from the non-bound radioactivity, and the receptor bound activity is counted. The interaction of the test compounds with the receptors is assessed in competition binding experiments. Various concentrations of the test compound are added to the incubation mixture containing the tissue preparation and the radioligand. Binding of the radioligand will be inhibited by the test compound in proportion to its binding affinity and its concentration. The affinities of the compounds for the 5-HT2 receptors were measured by means of radioligand binding studies conducted with: (a) human cloned 5-HT2A receptor, expressed in L929 cells using [^125I]R91150 as radioligand and (b) human cloned 5-HT2C receptor, expressed in CHO cells using [^3H]mesulergine as radioligand.

[2] = molecular target: T2, human cloned 5-HT2C receptor (Homo sapiens, UniProt P28335); assay: In vitro binding affinity for 5-HT2C receptor (radioligand binding); conditions: human cloned 5-HT2C receptor expressed in CHO cells, [3H]mesulergine radioligand; read-out: 5-HT2C (pIC50) (converted)
T2 construct: expressed in transfected cells; host or cells: CHO cells
T2 sequence (P28335 33-458): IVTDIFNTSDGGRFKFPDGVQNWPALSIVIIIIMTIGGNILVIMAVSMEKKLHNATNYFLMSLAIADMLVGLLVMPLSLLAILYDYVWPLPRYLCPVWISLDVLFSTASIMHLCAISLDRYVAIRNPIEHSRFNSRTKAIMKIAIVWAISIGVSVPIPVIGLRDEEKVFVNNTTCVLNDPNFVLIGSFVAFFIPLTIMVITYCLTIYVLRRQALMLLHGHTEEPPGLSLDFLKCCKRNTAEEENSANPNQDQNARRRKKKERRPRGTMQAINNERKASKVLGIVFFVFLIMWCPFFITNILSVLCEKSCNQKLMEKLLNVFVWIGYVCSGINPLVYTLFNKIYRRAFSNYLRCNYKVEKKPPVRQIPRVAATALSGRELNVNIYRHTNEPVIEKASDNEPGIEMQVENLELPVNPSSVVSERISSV
Method: as §1

[3] = Metabolic stability assay using human liver microsomes; assay type: in vitro ADME; conditions: 5.0 μM test compound, 15 min incubation, LC-MS
Method: Compounds according to the invention were tested for metabolic stability in the following assay using human liver microsomes in comparison with prior art compound A, referred to above.
Sub-cellular tissue preparations are made by centrifugal separation after mechanical homogenization of tissue. Tissue is rinsed in ice cold 0.1 M Tris-HCl (pH 7.4) buffer to wash excess blood. Tissue is then blotted dry, weighed and chopped coarsely using surgical scissors. The tissue pieces are homogenized in 3 volumes of ice cold 0.1 M phosphate buffer (pH 7.4) for 7×10 sec. The vessel is kept in/on ice during the homogenization process. Tissue homogenates are centrifuged at 9000×g for 20 minutes at 4° C. The resulting supernatant can be stored at −80° C. and is designated ‘S9’.
The S9-fraction may be centrifuged at 100.000×g for 60 minutes (4° C.). The resulting supernatant is aspirated, aliquoted and designated ‘cytosol’. The pellet is re-suspended in 0.1 M phosphate buffer (pH 7.4) in a final volume of 1 mL per 0.5 g original tissue weight and designated ‘microsomes’.
The incubation is carried out in the following system:
• The reaction is started by the addition of 0.8 mM NADP and incubated for 15 min. • Total assay volume is 250 microliters. • The reaction is stopped by the addition of 2 volumes of DMSO (or acetonitrile). • The samples are centrifuged (10 min, 900×g) and supernatant stored at room temperature (when stopped with DMSO; no longer than 24 h) or −20° C. (when stopped with acetonitrile; no longer than 24 h) before analysis. • The supernatant material is then analysed by LC-MS to determine the extent of metabolism of the test compound in the microsomes

[4] = molecular target: T3, norepinephrine transporter (NET) (Rattus norvegicus, UniProt Q63380); assay: In vitro assay for NET inhibition (radioligand binding, rat brain cortex); conditions: rat brain cortex membranes, [3H]Nixosetine radioligand; read-out: NET-inhibition (pIC50) (converted)
T3 construct: Cortex from rat brain was collected and homogenised; from tissue; host or cells: rat brain cortex membranes
Method: Cortex from rat brain was collected and homogenised using an Ultra-Turrax T25 and a Dual homogeniser in ice-cold homogenising buffer containing Tris, NaCl and KCl (50 mM, 120 mM and 5 mM, respectively, pH 7.4) prior to dilution to an appropriate protein concentration optimised for specific and non-specific binding. […] Membrane-bound activity was detected by filtration through a Packard Filtermate harvester onto GF/B Unifilterplates, washed with ice-cold Tris-HCl buffer, containing NaCl and KCl (50 mM, 120 mM and 4 mM; pH 7.4; 6×0.5 ml). Filters were allowed to dry for 24 h before adding scintillation fluid. Scintillation fluid was allowed to saturate filters for 24 h before counting in a Topcount scintillation counter. Percentage specific bound and competition binding curves were calculated using S-Plus software (Insightful).

[5] = molecular target: T4, human dopamine D2L receptor (Homo sapiens, UniProt P14416); assay: In vitro assay for D2 receptor binding; conditions: for IC50: membranes of human D2L-transfected CHO cells, [3H]Spiperone radioligand, read-out: D2 (pIC50) (converted); for D2/NET: ratio of D2 pIC50 to NET-inhibition pIC50
T4 construct: expressed in transfected cells; host or cells: CHO cells (frozen membranes)
Method: Frozen membranes of human dopamine D2L receptor-transfected CHO cells were thawed, briefly homogenised using an Ultra-Turrax T25 homogeniser and diluted in Tris-HCl assay buffer containing NaCl, CaCl2, MgCl2, KCl (50, 120, 2, 1, and 5 mM respectively, adjusted to pH 7.7 with HCl) to an appropriate protein concentration optimised for specific and non-specific binding. Radioligand [^3H]Spiperone (NEN, specific activity ˜70 Ci/mmol) was diluted in assay buffer at a concentration of 2 nmol/L. Prepared radioligand (50 μl), along with 50 μl of either the 10% DMSO control, Butaclamol (10^−6 mol/l final concentration), or compound of interest, was then incubated (30 min, 37° C.) with 400 μl of the prepared membrane solution. Membrane-bound activity was filtered through a Packard Filtermate harvester onto GF/B Unifilterplates and washed with ice-cold Tris-HCl buffer (50 mM; pH 7.7; 6×0.5 ml). Filters were allowed to dry before adding scintillation fluid and counting in a Topcount scintillation counter. Percentage specific bound and competition binding curves were calculated using S-Plus software (Insightful).

T1 sequence (P28223 whole entry): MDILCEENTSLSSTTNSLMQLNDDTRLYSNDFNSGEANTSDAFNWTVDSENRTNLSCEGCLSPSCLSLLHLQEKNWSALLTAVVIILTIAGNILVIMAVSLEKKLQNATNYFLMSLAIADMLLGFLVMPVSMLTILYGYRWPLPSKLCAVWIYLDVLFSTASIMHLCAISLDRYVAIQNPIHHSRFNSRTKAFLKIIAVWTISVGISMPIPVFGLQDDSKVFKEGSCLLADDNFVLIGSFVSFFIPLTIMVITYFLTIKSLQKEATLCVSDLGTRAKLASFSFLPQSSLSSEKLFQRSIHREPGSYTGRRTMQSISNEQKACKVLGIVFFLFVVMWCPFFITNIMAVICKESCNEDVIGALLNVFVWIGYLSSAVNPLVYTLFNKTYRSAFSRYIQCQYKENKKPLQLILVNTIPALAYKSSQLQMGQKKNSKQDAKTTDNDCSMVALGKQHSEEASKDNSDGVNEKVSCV
T3 sequence (Q63380 1-617): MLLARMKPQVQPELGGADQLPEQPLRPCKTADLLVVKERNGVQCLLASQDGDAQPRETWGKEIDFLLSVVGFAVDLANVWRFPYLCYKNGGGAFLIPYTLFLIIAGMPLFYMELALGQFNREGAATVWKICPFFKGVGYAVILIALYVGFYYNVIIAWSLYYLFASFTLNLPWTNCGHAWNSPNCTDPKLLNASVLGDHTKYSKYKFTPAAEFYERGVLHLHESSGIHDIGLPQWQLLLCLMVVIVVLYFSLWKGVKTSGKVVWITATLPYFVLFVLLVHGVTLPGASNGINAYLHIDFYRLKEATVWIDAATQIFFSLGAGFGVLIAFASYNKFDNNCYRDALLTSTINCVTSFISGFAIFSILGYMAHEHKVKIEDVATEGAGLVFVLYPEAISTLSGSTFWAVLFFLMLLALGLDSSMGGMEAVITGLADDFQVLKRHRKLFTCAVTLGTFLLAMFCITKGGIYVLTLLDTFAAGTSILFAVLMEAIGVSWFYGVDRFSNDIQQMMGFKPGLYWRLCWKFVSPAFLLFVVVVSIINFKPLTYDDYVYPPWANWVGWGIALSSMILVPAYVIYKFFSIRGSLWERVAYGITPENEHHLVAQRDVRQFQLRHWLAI
T4 sequence (P14416 whole entry): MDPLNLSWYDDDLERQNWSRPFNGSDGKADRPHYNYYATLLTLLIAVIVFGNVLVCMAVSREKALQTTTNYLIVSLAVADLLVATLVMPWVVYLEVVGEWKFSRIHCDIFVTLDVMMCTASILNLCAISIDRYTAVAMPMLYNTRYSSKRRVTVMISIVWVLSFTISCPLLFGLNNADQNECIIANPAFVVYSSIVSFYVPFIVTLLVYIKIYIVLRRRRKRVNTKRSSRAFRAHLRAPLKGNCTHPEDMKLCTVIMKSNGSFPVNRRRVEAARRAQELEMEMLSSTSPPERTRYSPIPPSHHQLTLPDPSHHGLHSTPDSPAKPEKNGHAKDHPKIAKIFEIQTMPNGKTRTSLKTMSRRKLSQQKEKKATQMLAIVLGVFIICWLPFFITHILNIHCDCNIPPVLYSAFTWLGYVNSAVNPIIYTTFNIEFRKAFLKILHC

| SMILES | IC50 [1] [nM] | IC50 [2] [nM] | % metabolised [3] [%] | IC50 [4] [nM] | IC50 [5] [nM] | D2/NET [5] |
| --- | --- | --- | --- | --- | --- | --- |
| CNCC1CC2c3ccccc3C(C)c3ccc(F)cc3C2O1 (single isomer, unassigned) [Compound 74] | 12.6 | 3.98 | 9 | 5.01 | 631 | 0.74 |
| C=C1c2ccccc2[C@H]2C[C@H](CN(C)C)O[C@@H]2c2cc(F)ccc21 [Compound 26] |  |  | 2.6 |  |  |  |
| CN(C)C[C@H]1C[C@@H]2c3ccccc3[C@](C)(O)c3ccc(F)cc3[C@H]2O1 [Compound 41] | 31.6 | 50.1 | 2.25 | 126 | > 1000 | <0.87 |
| C[C@@H]1c2ccccc2[C@H]2C[C@H](CN(C)C)O[C@@H]2c2cc(F)ccc21 [Compound 66] | 25.1 | 3.98 | 11.35 | 31.6 | 316 | 0.86 |
| CCNC[C@H]1C[C@@H]2c3ccccc3[C@@H](OC)c3ccc(F)cc3[C@H]2O1 [Compound 110] | 1260 | 398 |  | 10 | > 10000 | <0.62 |
